According to PMC10709440, “High-throughput ligand profile characterization in novel cell lines expressing seven heterologous insect olfactory receptors for the detection of volatile plant biomarkers” (Scientific Reports, 2023):
Read-outs that look alike come from different tables or passages of the source.

Columns and labels:
Drosophila OR13a = molecular target: T1, Drosophila OR13a (Drosophila melanogaster, UniProt Q9VXL0); test: Calcium ion fluorescence (GCaMP6) assay, OR13a stable HEK293 cell line; type: cell-based; conditions: for OR13a response (VUAA1-normalized) at 1 μM / OR13a response (VUAA1-normalized) at 10 μM / OR13a response (VUAA1-normalized) at 100 μM: OR13a cell line; for OR13a response (VUAA1-normalized) at 1 μM: VOC concentration 1 μM; for OR13a response (VUAA1-normalized) at 10 μM: VOC concentration 10 μM; for OR13a response (VUAA1-normalized) at 100 μM: VOC concentration 100 μM; for DF norm AVERAGE OR13a: threshold 0.05, below shown as 0
T1 construct: expressed in transfected cells
T1 sequence (Q9VXL0 1-418): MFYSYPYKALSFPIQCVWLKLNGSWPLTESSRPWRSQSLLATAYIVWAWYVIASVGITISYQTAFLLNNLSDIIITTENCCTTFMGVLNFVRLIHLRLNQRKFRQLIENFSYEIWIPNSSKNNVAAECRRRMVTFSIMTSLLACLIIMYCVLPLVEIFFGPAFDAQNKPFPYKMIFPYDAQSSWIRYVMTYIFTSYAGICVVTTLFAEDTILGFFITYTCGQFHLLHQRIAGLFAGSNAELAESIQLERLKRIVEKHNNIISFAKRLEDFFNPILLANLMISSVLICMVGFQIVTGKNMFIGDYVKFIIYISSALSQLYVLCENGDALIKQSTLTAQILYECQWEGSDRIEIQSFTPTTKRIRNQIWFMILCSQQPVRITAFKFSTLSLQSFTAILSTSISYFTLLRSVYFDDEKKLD
T1 sequence (Q9VNB5 1-486 partner): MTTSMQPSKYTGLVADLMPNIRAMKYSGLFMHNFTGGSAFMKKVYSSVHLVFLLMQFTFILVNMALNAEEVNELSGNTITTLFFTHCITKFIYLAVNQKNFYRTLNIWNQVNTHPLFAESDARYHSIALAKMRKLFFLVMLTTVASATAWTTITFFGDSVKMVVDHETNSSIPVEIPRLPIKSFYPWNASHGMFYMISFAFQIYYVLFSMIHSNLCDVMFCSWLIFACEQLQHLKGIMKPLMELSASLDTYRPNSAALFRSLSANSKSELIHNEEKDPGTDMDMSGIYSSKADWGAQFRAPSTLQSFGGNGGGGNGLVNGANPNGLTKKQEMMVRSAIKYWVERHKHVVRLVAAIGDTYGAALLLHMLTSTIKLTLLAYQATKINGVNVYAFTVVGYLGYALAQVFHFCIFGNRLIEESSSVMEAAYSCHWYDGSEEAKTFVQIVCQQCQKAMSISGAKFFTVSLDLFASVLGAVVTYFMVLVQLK
Procedure: (§1) These VUAA1 normalized ∆F values were used to compare the different receptors and ligands.
(§2) The concentration-dependent effect of the reference ligands on their cognate cell lines was examined in more detail. Twelve different ligand concentrations were measured on each cell line in an overall 0.01 μM to 100 μM concentration range with 5 repetitions with three technical replicates each time.
(§3) Twelve thousand to 18,000 cells were plated into each well of a black wall, transparent bottom 384-well microplate (Greiner) 48 h or 72 h before the measurements and were simultaneously treated with 1 μg/mL doxycycline. […] The plate has 24 columns, thus we could record responses in up to eight different cell lines in each plate. On the day of the experiment, the growth medium was replaced with 20 µL assay buffer/well (140 mM NaCl, 5 mM KCl, 2 mM CaCl2, 1 mM MgCl2, 5 mM HEPES-Na, 20 mM glucose, pH 7.3, 340 mOsm). […] Baseline fluorescence (F0) was recorded for 5 s, after which 7 µL VOC buffer (140 mM NaCl, 5 mM KCl, 2 mM CaCl2, 1 mM MgCl2, 5 mM HEPES-Na, 31 mM glucose, 0.1% DMSO, pH 7.3, 340 mOsm) was injected into each well in one row and the fluorescence response was recorded for an additional 30 s, at a rate of one read/sec. VOC solutions (VOC buffer with 4× concentration of the final measured VOC concentration, 9 µL/well was injected) were measured on the same wells in a second round with the same protocol. Each individual concentration of a specific VOC sample was recorded in three wells for the same cell line on the same microplate. The raw data were exported in xls file format, F0 and FMAX values, and the fluorescence intensity changes (∆F) were calculated in Excel (Microsoft) (Supplementary file Data summary.xlsx) using the following equation: ΔF=FMAX-F0/F0 (see also Fig. 1C). On each plate, we recorded the response of each cell line to 50 µM VUAA1. The average of these ∆F values of each cell line were used to calculate the VUAA1-normalized values for the rest of the plate, by dividing VOC response ∆F values by the average VUAA1 response ∆F value of the corresponding OR cell line. Each VOC-OR combination was measured three times as technical replicates. […] The average of these replicates were used as one ∆F and VUAA1-normalized ∆F in the following analysis.
(§4) In the next rows we tested the reference VOCs (or other VOCs known to activate the corresponding cell lines), in order to test if all cell lines are responsive. The remaining rows were used to test VOCs with unknown effect.
(§5) The recorded FMAX, F0, ∆F, VUAA1-normalized ∆F values, as well as the OR name, the name of the tested sample, and the final concentration for each well were copied into supplementary file Data summary.xlsx, that was used to summarize all the plates recorded. Here, the averages of the measurements were calculated for each receptor-VOC-concentration combination.

Drosophila OR49b = molecular target: T2, Drosophila OR49b (Drosophila melanogaster, UniProt Q9V6H2); test: cell-based; conditions: for activation at 1 µM / activation at 10 µM / activation at 100 µM: HEK293; for OR49b response (VUAA1-normalized) at 1 μM / OR49b response (VUAA1-normalized) at 10 μM / OR49b response (VUAA1-normalized) at 100 μM / Average response: OR49b cell line; for Average response: mean of biological replicates; for DF norm AVERAGE OR49b: threshold 0.05, below shown as 0
T2 construct: expressed in transfected cells
T2 sequence (Q9V6H2 1-375): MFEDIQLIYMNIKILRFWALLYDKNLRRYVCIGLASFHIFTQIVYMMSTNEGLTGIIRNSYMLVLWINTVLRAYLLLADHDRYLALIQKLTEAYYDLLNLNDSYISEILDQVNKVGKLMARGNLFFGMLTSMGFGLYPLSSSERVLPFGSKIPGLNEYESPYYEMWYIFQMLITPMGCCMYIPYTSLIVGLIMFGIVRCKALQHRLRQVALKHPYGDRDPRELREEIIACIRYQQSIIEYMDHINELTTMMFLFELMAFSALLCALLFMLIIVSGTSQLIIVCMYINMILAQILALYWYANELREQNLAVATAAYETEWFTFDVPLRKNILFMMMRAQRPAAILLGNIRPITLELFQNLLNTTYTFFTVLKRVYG
T2 sequence (Q9VNB5 1-486 partner): T1 sequence (Q9VNB5 1-486 partner)
Procedure: as §1, §2, §3, §4, §5

[1] = HEK293, read-out: OR13a Average response (VUAA1-normalized), 1 μM VOC, 50 μM VUAA1 = 1, responses not exceeding 0.05 considered 0
[2] = HEK293, read-out: OR13a Average response (VUAA1-normalized), 10 μM VOC, 50 μM VUAA1 = 1, responses not exceeding 0.05 considered 0
[3] = HEK293, read-out: OR13a Average response (VUAA1-normalized), 100 μM VOC, 50 μM VUAA1 = 1, responses not exceeding 0.05 considered 0
[4] = ligand concentration 1 (unit not given)
[5] = ligand concentration 10 (unit not given)
[6] = ligand concentration 100 (unit not given)
[7] = 1 μM VOC, 50 μM VUAA1 = 1, read-out: OR49b Average response (VUAA1-normalized)
[8] = 10 μM VOC, 50 μM VUAA1 = 1, read-out: OR49b Average response (VUAA1-normalized)
[9] = 100 μM VOC, 50 μM VUAA1 = 1, read-out: OR49b Average response (VUAA1-normalized)

Compound	activation at 1 µM (Drosophila OR13a; [1]) [%]	activation at 10 µM (Drosophila OR13a; [2]) [%]	activation at 100 µM (Drosophila OR13a; [3]) [%]	OR13a response (VUAA1-normalized) at 1 μM (Drosophila OR13a)	OR13a response (VUAA1-normalized) at 10 μM (Drosophila OR13a)	OR13a response (VUAA1-normalized) at 100 μM (Drosophila OR13a)	DF norm AVERAGE OR13a (Drosophila OR13a; [4])	DF norm AVERAGE OR13a (Drosophila OR13a; [5])	DF norm AVERAGE OR13a (Drosophila OR13a; [6])	activation at 1 µM (Drosophila OR49b; [7]) [%]	activation at 10 µM (Drosophila OR49b; [8]) [%]	OR49b response (VUAA1-normalized) at 1 μM (Drosophila OR49b; VOC concentration 1 μM)	OR49b response (VUAA1-normalized) at 10 μM (Drosophila OR49b; VOC concentration 10 μM)	OR49b response (VUAA1-normalized) at 100 μM (Drosophila OR49b; VOC concentration 100 μM)	Average response (Drosophila OR49b; odorant cc. 1 µM)	Average response (Drosophila OR49b; odorant cc. 10 µM)	Average response (Drosophila OR49b; odorant cc. 100 µM)	DF norm AVERAGE OR49b (Drosophila OR49b; [4])	DF norm AVERAGE OR49b (Drosophila OR49b; [5])	DF norm AVERAGE OR49b (Drosophila OR49b; [6])	also measured
Cc1ccc(C)cc1 [p-xylene]	0	0	2.5	0.00	0.00	0.00	0	0	0	0	3	0.00	0.00	0.38	0.00	0.033	0.38	0	0	0.379	activation at 100 µM (Drosophila OR49b; [9]): 38%
COC(=O)c1ccccc1O [methyl salicylate]	0	1	21	0.00	0.00	0.21	0	0	0.213	3	0	0.00	0.00	0.12	0.0269	0.00333	0.12	0	0	0.1238	activation at 100 µM (Drosophila OR49b; [9]): 12%
CC1=CCC2CC1C2(C)C (stereo not drawn) [alpha-pinene]	0	0	1.73				0	0	0						0.0281	0.00	0.00	0	0	0	activation at 1 µM (Drosophila OR13a; HEK293, read-out: OR13a response (VUAA1-normalized response), VOC concentration 1 μM): 0%; activation at 10 µM (Drosophila OR13a; HEK293, read-out: OR13a response (VUAA1-normalized response), VOC concentration 10 μM): 0%; activation at 100 µM (Drosophila OR13a; HEK293, read-out: OR13a response (VUAA1-normalized response), VOC concentration 100 μM): 0%; activation at 1 µM (Drosophila OR49b; VOC concentration 1 μM, read-out: OR49b response (VUAA1-normalized response)): 0%; activation at 10 µM (Drosophila OR49b; VOC concentration 10 μM, read-out: OR49b response (VUAA1-normalized response)): 0%; activation at 100 µM (Drosophila OR49b; VOC concentration 100 μM, read-out: OR49b response (VUAA1-normalized response)): 0%
Cc1ccc(C(C)C)cc1 [p-cymene]	0	0	0	0.00	0.00	0.00	0	0	0			0.00	0.00	0.00	0.00	0.00	0.00	0	0	0	
